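Following 48 hours of exposure in 96-well plates, responses at five concentrations were used to interpolate endpoints linearly. At the GI50, growth is halved. The concentration for full growth arrest is given as TGI.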
Legend:
Experiment in all cases: NCI tumour cell line growth inhibition, 48 h
[1] = system: SK-MEL-28 melanoma
[2] = system: SNB-19 CNS
[3] = system: BT-549 breast
[4] = system: OVCAR-3 ovarian
[5] = system: SNB-75 CNS
[6] = system: PC-3 prostate
[7] = system: SN12C renal
[8] = system: NCI-H522 lung
[9] = system: LOX IMVI melanoma
[10] = system: NCI-H460 lung
[11] = system: A549 NSCLC
[12] = system: UACC-257 melanoma
[13] = system: HCC-2998 colon
[14] = system: HOP-62 NSCLC
[15] = system: NCI-H23 lung
[16] = system: UO-31 renal
[17] = system: SF-295 CNS
[18] = system: MALME-3M melanoma
[19] = system: MOLT-4 leukemia
[20] = system: ACHN renal
[21] = system: DU-145 prostate
[22] = system: MDA-MB-231 breast
[23] = system: HOP-92 NSCLC
[24] = system: MCF7 breast
[25] = system: COLO 205 colon
[26] = system: HT29 colon
[27] = system: CCRF-CEM leukemia
[28] = system: RXF 393 renal
[29] = system: TK-10 renal
[30] = system: A498 renal
[31] = system: OVCAR-5 ovarian
[32] = system: 786-0 renal
[33] = system: SK-OV-3 ovarian
[34] = system: SF-539 CNS
[35] = system: IGROV1 ovarian
[36] = system: HCT-116 colon
[37] = system: EKVX NSCLC
[38] = system: CAKI-1 renal
[39] = system: U251 CNS
[40] = system: SF-268 CNS
[41] = system: OVCAR-8 ovarian
[42] = system: NCI/ADR-RES ovarian
[43] = system: KM12 colon
[44] = system: HL-60(TB) leukemia
[45] = system: SK-MEL-5 melanoma
[46] = system: MDA-MB-435
[47] = system: SK-MEL-2 melanoma
[48] = system: K-562 leukemia
[49] = system: HCT-15 colon
[50] = system: NCI-H226 lung
[51] = system: M14 melanoma
[52] = system: SW-620 colon
[53] = system: OVCAR-4 ovarian
[54] = system: UACC-62 melanoma
[55] = system: RPMI-8226 leukemia
[56] = system: T-47D breast
[57] = system: SR leukemia
[58] = system: HS 578T breast

## O=C1CCC2SC1CCC2=O
[1]
  TGI: > 100 µM
[2]
  TGI: > 100 µM
[3]
  TGI: > 100 µM
[4]
  TGI: > 100 µM
[5]
  TGI: > 100 µM
[6]
  TGI: > 100 µM
[7]
  TGI: > 100 µM
[8]
  TGI: > 100 µM
[9]
  TGI: > 100 µM
[10]
  TGI: > 100 µM
[11]
  TGI: > 100 µM
[12]
  TGI: > 100 µM
[13]
  TGI: > 100 µM
[14]
  TGI: > 100 µM
[15]
  TGI: > 100 µM
[16]
  TGI: > 100 µM
[17]
  TGI: > 100 µM
[18]
  TGI: > 100 µM
[19]
  TGI: > 100 µM
[20]
  TGI: > 100 µM
[21]
  TGI: > 100 µM
[22]
  TGI: > 100 µM
[23]
  TGI: > 100 µM
[24]
  TGI: > 100 µM
[25]
  TGI: > 100 µM
[26]
  TGI: > 100 µM
[27]
  TGI: > 100 µM
[28]
  TGI: > 100 µM
[29]
  TGI: > 100 µM
[30]
  TGI: > 100 µM
[31]
  TGI: > 100 µM
[32]
  TGI: > 100 µM
[33]
  TGI: > 100 µM
[34]
  TGI: > 100 µM
[35]
  TGI: > 100 µM
[36]
  TGI: > 100 µM
[37]
  TGI: > 100 µM
[38]
  TGI: > 100 µM
[39]
  TGI: > 100 µM
[40]
  TGI: > 100 µM
[41]
  TGI: > 100 µM
[42]
  TGI: > 100 µM
[43]
  TGI: > 100 µM
[44]
  TGI: > 100 µM
[45]
  TGI: > 100 µM
[46]
  TGI: > 100 µM
[47]
  TGI: > 100 µM
[48]
  TGI: > 100 µM
[49]
  TGI: > 100 µM
[50]
  TGI: > 100 µM
[51]
  TGI: > 100 µM
[52]
  TGI: > 100 µM
[53]
  TGI: > 100 µM

## O=P(O)(Cc1ccccc1)OCC1(O)OCC(O)C(O)C1O (centres undefined)
[1]
  TGI: > 10 µM
[54]
  TGI: > 10 µM
[5]
  TGI: > 10 µM
[10]
  TGI: > 10 µM
[11]
  TGI: > 10 µM
[14]
  TGI: > 10 µM
[15]
  TGI: > 10 µM
[55]
  TGI: > 10 µM
[18]
  TGI: > 10 µM
[20]
  TGI: > 10 µM
[24]
  TGI: > 10 µM
[25]
  TGI: > 10 µM
[28]
  TGI: > 10 µM
[31]
  TGI: > 10 µM
[32]
  TGI: > 10 µM
[33]
  TGI: > 10 µM
[56]
  TGI: > 10 µM
[35]
  TGI: > 10 µM
[38]
  TGI: > 10 µM
[39]
  TGI: > 10 µM
[40]
  TGI: > 10 µM
[42]
  TGI: > 10 µM
[45]
  TGI: > 10 µM
[46]
  TGI: > 10 µM
[47]
  TGI: > 10 µM
[57]
  TGI: > 10 µM
[48]
  TGI: > 10 µM
[51]
  TGI: > 10 µM
[52]
  TGI: > 10 µM
[53]
  TGI: > 10 µM

## Nc1ncnc2nc(-c3ccc(C[P+](c4ccccc4)(c4ccccc4)c4ccccc4)cc3)[nH]c12
[5]
  GI50: 57.7 µM
[32]
  GI50: 48.2 µM
[39]
  GI50: 32.7 µM

## Cc1cc(S(=O)(=O)Nc2nnc(-c3ccccc3)c(-c3ccccc3)n2)c(SCc2ccccc2)cc1Cl
[1]
  GI50: 22.6 µM
  TGI: 40.7 µM
[2]
  GI50: 25.7 µM
  TGI: 52.7 µM
[54]
  GI50: 16.1 µM
  TGI: 30.9 µM
[3]
  GI50: 18.9 µM
  TGI: 41.8 µM
[4]
  GI50: 17.9 µM
  TGI: 34.8 µM
[5]
  GI50: 29.4 µM
  TGI: 49 µM
[6]
  GI50: 21.2 µM
  TGI: 58 µM
[8]
  GI50: 21.8 µM
  TGI: 53.7 µM
[9]
  GI50: 26.2 µM
  TGI: 50.2 µM
[10]
  GI50: 23.8 µM
  TGI: 65.7 µM
[11]
  GI50: 27.7 µM
  TGI: > 100 µM
[12]
  GI50: 28.5 µM
  TGI: 70.1 µM
[13]
  GI50: 27.3 µM
  TGI: 43.8 µM
[14]
  GI50: 22.9 µM
  TGI: 39.6 µM
[15]
  GI50: 22.6 µM
  TGI: 48.1 µM
[16]
  GI50: 26 µM
  TGI: 73.5 µM
[58]
  GI50: 19.1 µM
  TGI: 52.8 µM
[17]
  GI50: 19.5 µM
  TGI: 38.5 µM
[55]
  GI50: 11.5 µM
  TGI: 52.8 µM
[18]
  GI50: 16.9 µM
  TGI: 38.7 µM
[19]
  GI50: 15 µM
  TGI: 36.8 µM
[20]
  GI50: 17.6 µM
  TGI: 32.6 µM
[21]
  GI50: 15.2 µM
  TGI: 30.7 µM
[22]
  GI50: 20.2 µM
  TGI: 41.9 µM
[23]
  GI50: 18.8 µM
  TGI: 47.1 µM
[24]
  GI50: 24 µM
  TGI: 54.2 µM
[25]
  GI50: 23.6 µM
  TGI: 48 µM
[26]
  GI50: 22.4 µM
  TGI: 51.7 µM
[27]
  GI50: 23.8 µM
  TGI: 75.5 µM
[28]
  GI50: 19.8 µM
  TGI: 39.2 µM
[29]
  GI50: 17.6 µM
  TGI: 36.1 µM
[30]
  GI50: 19.8 µM
  TGI: 39.1 µM
[31]
  GI50: 24.8 µM
  TGI: 50.3 µM
[32]
  GI50: 14.5 µM
  TGI: 29.8 µM
[56]
  GI50: 23.8 µM
  TGI: 52.3 µM
[34]
  GI50: 19.9 µM
  TGI: 38.6 µM
[35]
  GI50: 37.3 µM
  TGI: > 100 µM
[36]
  GI50: 19.8 µM
  TGI: 38.9 µM
[37]
  GI50: 5.68 µM
  TGI: 25.2 µM
[38]
  GI50: 25.5 µM
  TGI: 42.5 µM
[39]
  GI50: 21.7 µM
  TGI: 50.1 µM
[40]
  GI50: 19.3 µM
  TGI: 39.9 µM
[41]
  GI50: 27.2 µM
  TGI: 89.7 µM
[42]
  GI50: 32.8 µM
  TGI: 90.3 µM
[43]
  GI50: 18.5 µM
  TGI: 43.1 µM
[44]
  GI50: 34.1 µM
  TGI: 67.2 µM
[45]
  GI50: 17 µM
  TGI: 33.5 µM
[46]
  GI50: 21.7 µM
  TGI: 43.3 µM
[48]
  GI50: 29.6 µM
  TGI: > 100 µM
[49]
  GI50: 20.3 µM
  TGI: 43.3 µM
[50]
  GI50: 27.7 µM
  TGI: 79.8 µM
[51]
  GI50: 20.7 µM
  TGI: 42.1 µM
[52]
  GI50: 20.6 µM
  TGI: 44.8 µM
[53]
  GI50: 19.9 µM
  TGI: 37.2 µM
